Results published in ChEMBL document CHEMBL1140860, “Synthesis and evaluation of dihydroartemisinin and dihydroartemisitene acetal dimers showing anticancer and antiprotozoal activity” (Bioorg Med Chem, 2009).

How the values were obtained:
[1] = Selectivity index, ratio of TC50 for african green monkey (Cercopithecus aethiops) Vero cells to IC50 for chloroquine-sensitive Plasmodium falciparum D6; format: toxicity, cell-based
Plasmodium falciparum [2] = test: Antimalarial activity after 72 hrs against chloroquine-resistant Plasmodium falciparum W2 infected erythrocytes by LDH assay; format: functional, organism-based; conditions: W2, 72 h
[3] = Selectivity index, ratio of TC50 for african green monkey (Cercopithecus aethiops) Vero cells to IC50 for chloroquine-resistant Plasmodium falciparum W2; format: toxicity, cell-based
Plasmodium falciparum [4] = test: Antimalarial activity after 72 hrs against chloroquine-sensitive Plasmodium falciparum D6 infected in erythrocytes by LDH assay; format: functional, organism-based; conditions: D6, 72 h
[5] = Cytotoxicity against african green monkey Vero cells after 48 hrs by neutral red assay; format: cell-based; conditions: chlorocebus sabaeus, read-out: TC50
NCI-H226 = test: Growth inhibition of human NCI-H226 cells after 48 hrs by sulforhodamine B assay; format: functional; conditions: NCI-H226, 48 h
PC-3 = test: Growth inhibition of human PC3 cells after 48 hrs by sulforhodamine B assay; format: functional; conditions: PC-3, 48 h
CAKI-1 = test: Growth inhibition of human Caki1 cells after 48 hrs by sulforhodamine B assay; format: functional; conditions: CAKI-1, 48 h
[6] = Growth inhibition of human […] cells after 48 hrs by sulforhodamine B assay; format: functional
M14 = test: Growth inhibition of human M14 cells after 48 hrs by sulforhodamine B assay; format: functional; conditions: M14, 48 h
NCI/ADR-RES = test: Growth inhibition of human NCI/ADR-RES cells after 48 hrs by sulforhodamine B assay; format: functional
HT-29 = test: Growth inhibition of human HT-29 cells after 48 hrs by sulforhodamine B assay; format: functional; conditions: HT-29, 48 h
HOP-92 = test: Growth inhibition of human HOP92 cells after 48 hrs by sulforhodamine B assay; format: functional; conditions: HOP-92, 48 h
SNB-19 = test: Growth inhibition of human SNB19 cells after 48 hrs by sulforhodamine B assay; format: functional; conditions: SNB-19, 48 h
EKVX = test: Growth inhibition of human EKVX cells after 48 hrs by sulforhodamine B assay; format: functional
HOP-62 = test: Growth inhibition of human HOP62 cells after 48 hrs by sulforhodamine B assay; format: functional; conditions: HOP-62, 48 h
UACC-257 = test: Growth inhibition of human UACC257 cells after 48 hrs by sulforhodamine B assay; format: functional; conditions: UACC-257, 48 h
[7] = Growth inhibition of human Hs 578T cells after 48 hrs by sulforhodamine B assay; format: functional
OVCAR-5 = test: Growth inhibition of human OVCAR5 cells after 48 hrs by sulforhodamine B assay; format: functional; conditions: OVCAR-5, 48 h
UO-31 = test: Growth inhibition of human UO31 cells after 48 hrs by sulforhodamine B assay; format: functional; conditions: UO-31, 48 h
MDA-MB-231 = test: Growth inhibition of human MDA-MB-231 cells after 48 hrs by sulforhodamine B assay; format: functional; conditions: MDA-MB-231, 48 h
TK-10 = test: Growth inhibition of human TK10 cells after 48 hrs by sulforhodamine B assay; format: functional; conditions: TK-10, 48 h
OVCAR-4 = test: Growth inhibition of human OVCAR4 cells after 48 hrs by sulforhodamine B assay; format: functional; conditions: OVCAR-4, 48 h
A498 = test: Growth inhibition of human A498 cells after 48 hrs by sulforhodamine B assay; format: functional; conditions: A498, 48 h
SK-MEL-28 = test: Growth inhibition of human SK-MEL-28 cells after 48 hrs by sulforhodamine B assay; format: functional; conditions: SK-MEL-28, 48 h
RXF 393 = test: Growth inhibition of human RXF393 cells after 48 hrs by sulforhodamine B assay; format: functional; conditions: RXF 393, 48 h
HCC 2998 = test: Growth inhibition of human HCC2998 cells after 48 hrs by sulforhodamine B assay; format: functional; conditions: HCC 2998, 48 h
SNB-75 = test: Growth inhibition of human SNB75 cells after 48 hrs by sulforhodamine B assay; format: functional; conditions: SNB-75, 48 h
MOLT-4 = test: Growth inhibition of human MOLT4 cells after 48 hrs by sulforhodamine B assay; format: functional; conditions: MOLT-4, 48 h
786-0 = test: Growth inhibition of human 786-0 cells after 48 hrs by sulforhodamine B assay; format: functional; conditions: 786-0, 48 h
SF-539 = test: Growth inhibition of human SF539 cells after 48 hrs by sulforhodamine B assay; format: functional; conditions: SF-539, 48 h
HCT-116 = test: Growth inhibition of human HCT116 cells after 48 hrs by sulforhodamine B assay; format: functional; conditions: HCT-116, 48 h
LOX IMVI = test: Growth inhibition of human LOXIMVI cells after 48 hrs by sulforhodamine B assay; format: functional
HL-60 = test: Growth inhibition of human HL-60(TB) cells after 48 hrs by sulforhodamine B assay; format: functional; conditions: HL-60, 48 h
SF-295 = test: Growth inhibition of human SF295 cells after 48 hrs by sulforhodamine B assay; format: functional; conditions: SF-295, 48 h
HCT-15 = test: Growth inhibition of human HCT15 cells after 48 hrs by sulforhodamine B assay; format: functional; conditions: HCT-15, 48 h
ACHN = test: Growth inhibition of human ACHN cells after 48 hrs by sulforhodamine B assay; format: functional
CCRF-CEM = test: Growth inhibition of human CCRF-CEM cells after 48 hrs by sulforhodamine B assay; format: functional
MDA-MB-435 = test: Growth inhibition of human MDA-MB-435 cells after 48 hrs by sulforhodamine B assay; format: functional; conditions: MDA-MB-435, 48 h
Malme-3M = test: Growth inhibition of human MALME-3M cells after 48 hrs by sulforhodamine B assay; format: functional
T47D = test: Growth inhibition of human T47D cells after 48 hrs by sulforhodamine B assay; format: functional
MDA-N = test: Growth inhibition of human MDA-N cells after 48 hrs by sulforhodamine B assay; format: functional
UACC-62 = test: Growth inhibition of human UACC62 cells after 48 hrs by sulforhodamine B assay; format: functional; conditions: UACC-62, 48 h
OVCAR-3 = test: Growth inhibition of human OVCAR-3 cells after 48 hrs by sulforhodamine B assay; format: functional; conditions: OVCAR-3, 48 h
COLO 205 = test: Growth inhibition of human COLO205 cells after 48 hrs by sulforhodamine B assay; format: functional; conditions: COLO 205, 48 h
SF-268 = test: Growth inhibition of human SF268 cells after 48 hrs by sulforhodamine B assay; format: functional; conditions: SF-268, 48 h
NCI-H23 = test: Growth inhibition of human NCI-H23 cells after 48 hrs by sulforhodamine B assay; format: functional; conditions: NCI-H23, 48 h
SW-620 = test: Growth inhibition of human SW620 cells after 48 hrs by sulforhodamine B assay; format: functional; conditions: SW-620, 48 h
NCI-H460 = test: Growth inhibition of human NCI-H460 cells after 48 hrs by sulforhodamine B assay; format: functional; conditions: NCI-H460, 48 h
A549 = test: Growth inhibition of human A549 cells after 48 hrs by sulforhodamine B assay; format: functional; conditions: A549, 48 h
K562 = test: Growth inhibition of human K562 cells after 48 hrs by sulforhodamine B assay; format: functional; conditions: K562, 48 h
MCF7 = test: Growth inhibition of human MCF7 cells after 48 hrs by sulforhodamine B assay; format: functional; conditions: MCF7, 48 h
KM12 = test: Growth inhibition of human KM12 cells after 48 hrs by sulforhodamine B assay; format: functional; conditions: KM12, 48 h
NCI-H322M = test: Growth inhibition of human NCI-H322M cells after 48 hrs by sulforhodamine B assay; format: functional
SK-MEL-5 = test: Growth inhibition of human SK-MEL-5 cells after 48 hrs by sulforhodamine B assay; format: functional; conditions: SK-MEL-5, 48 h
SK-MEL-2 = test: Growth inhibition of human SK-MEL-2 cells after 48 hrs by sulforhodamine B assay; format: functional; conditions: SK-MEL-2, 48 h
NCI-H522 = test: Growth inhibition of human NCI-H522 cells after 48 hrs by sulforhodamine B assay; format: functional; conditions: NCI-H522, 48 h
IGROV-1 = test: Growth inhibition of human IGROV1 cells after 48 hrs by sulforhodamine B assay; format: functional; conditions: IGROV-1, 48 h
OVCAR-8 = test: Growth inhibition of human OVCAR8 cells after 48 hrs by sulforhodamine B assay; format: functional; conditions: OVCAR-8, 48 h
SN12C = test: Growth inhibition of human SN12C cells after 48 hrs by sulforhodamine B assay; format: functional
SK-OV-3 = test: Growth inhibition of human SKOV3 cells after 48 hrs by sulforhodamine B assay; format: functional; conditions: SK-OV-3, 48 h
U-251 = test: Growth inhibition of human U251 cells after 48 hrs by sulforhodamine B assay; format: functional; conditions: U-251, 48 h
BT-549 = test: Growth inhibition of human BT549 cells after 48 hrs by sulforhodamine B assay; format: functional; conditions: BT-549, 48 h

C[C@H]1[C@@H](O[C@H]2O[C@@H]3O[C@@]4(C)CC[C@H]5[C@H](C)CC[C@@H]([C@H]2C)[C@@]35OO4)O[C@@H]2O[C@@]3(C)CC[C@H]4[C@H](C)CC[C@@H]1[C@@]24OO3
selectivity ratio [1]: > 73
IC50 (Plasmodium falciparum [2]): 6900 nM
selectivity ratio [3]: > 125
IC50 (Plasmodium falciparum [4]): 11800 nM
CC50 at 48 h [5]: > 864000 nM

C[C@H]1[C@@H](O[C@@H](C)CO[C@H]2O[C@@H]3O[C@@]4(C)CC[C@H]5[C@H](C)CC[C@@H]([C@H]2C)[C@@]35OO4)O[C@@H]2O[C@@]3(C)CC[C@H]4[C@H](C)CC[C@@H]1[C@@]24OO3
GI50 (NCI-H226): 226 nM
GI50 (PC-3): 9 nM
GI50 (CAKI-1): 376 nM
GI50 [6]: < 10 nM
GI50 (M14): 18 nM
GI50 (NCI/ADR-RES): 264 nM
GI50 (HT-29): 12 nM
GI50 (HOP-92): 63 nM
GI50 (SNB-19): 104 nM
GI50 (EKVX): 37 nM
GI50 (HOP-62): 15900 nM
GI50 (UACC-257): 21 nM
GI50 [7]: 21 nM
GI50 (OVCAR-5): 27 nM
GI50 (UO-31): 31 nM
GI50 (MDA-MB-231): 80 nM
GI50 (TK-10): 17900 nM
GI50 (OVCAR-4): 72 nM
GI50 (A498): 409 nM
GI50 (SK-MEL-28): 16300 nM
selectivity ratio [1]: > 21
IC50 (Plasmodium falciparum [2]): 5100 nM
GI50 (RXF 393): < 10 nM
GI50 (HCC 2998): 49 nM
GI50 (SNB-75): 332 nM
GI50 (MOLT-4): < 10 nM
GI50 (786-0): 48 nM
GI50 (SF-539): 39 nM
GI50 (HCT-116): < 10 nM
GI50 (LOX IMVI): 179 nM
GI50 (HL-60): < 10 nM
GI50 (SF-295): 92 nM
GI50 (HCT-15): < 10 nM
GI50 (ACHN): 33 nM
GI50 (CCRF-CEM): 18 nM
GI50 (MDA-MB-435): 27 nM
GI50 (Malme-3M): 37 nM
GI50 (T47D): < 10 nM
GI50 (MDA-N): 42 nM
GI50 (UACC-62): 16 nM
GI50 (OVCAR-3): 46 nM
GI50 (COLO 205): 12 nM
selectivity ratio [3]: > 15
GI50 (SF-268): 65 nM
GI50 (NCI-H23): 37 nM
GI50 (SW-620): < 10 nM
IC50 (Plasmodium falciparum [4]): 3800 nM
GI50 (NCI-H460): 27 nM
GI50 (A549): 18 nM
GI50 (K562): < 10 nM
CC50 at 48 h [5]: > 78000 nM
GI50 (MCF7): < 10 nM
GI50 (KM12): < 10 nM
GI50 (NCI-H322M): 88 nM
GI50 (SK-MEL-5): 29 nM
GI50 (SK-MEL-2): 62 nM
GI50 (NCI-H522): 54 nM
GI50 (IGROV-1): 130 nM
GI50 (OVCAR-8): 34 nM
GI50 (SN12C): 25 nM
GI50 (SK-OV-3): 23600 nM
GI50 (U-251): < 10 nM
GI50 (BT-549): 58 nM
